Measured values: publication PMC11536076, “Intraoperative Guidance of Pancreatic Cancer Resection Using a Toll-like Receptor 2–Targeted Fluorescence Molecular Imaging Agent” (Cancer Research Communications, 2024)

How the values were obtained:
[1] = Absorbance and fluorescence emission spectra; type: physicochemical
Experimental: Absorbance and fluorescence emission spectra were generated using a Tecan Infinite M-1000 PRO multimode microplate reader. Solutions of TLR2L-800 were prepared from a 0.367 mmol/L stock solution in DMSO. Aliquots (2 µL) of TLR2L-800 were spotted on each well of a Tecan NanoQuant plate. The absorbance spectrum of TLR2L-800 (183.5 µmol/L in PBS) was acquired from 230 to 1,000 nm with a wavelength step size of 2 nm. The emission spectrum of TLR2L-800 (0.367 mmol/L in DMSO) was acquired with an excitation wavelength starting from 275 nm and emission wavelengths from 450 to 850 nm with an emission wavelength step size of 2 nm and bandwidth of 5 nm.

[2] = parameters: method as in LI-COR product sheet; details: unconjugated dye in water; ref LI-COR product sheet; cited from earlier work

Structure (SMILES): CC1(C)C(=CC=C2CCCC(C=CC3=[N+](CCCCCC(=O)[O-])c4ccc(S(=O)(=O)[O-])cc4C3(C)C)=C2Oc2ccc(S(=O)(=O)[O-])cc2)N(CCCCS(=O)(=O)[O-])c2ccc(S(=O)(=O)[O-])cc21.[Na+].[Na+].[Na+].[Na+] [IRDye800CW]
- Stokes shift [1]: 15 nm
- absorbance maxima [2]: 774 nm
- emission maxima [2]: 789 nm
